Assay results reported in US6818666B2, “Bi-aromatic compounds linked via a heteroethylene radical, and pharmaceutical and cosmetic compositions using them” (Galderma Research & Development, priority 1919, dated 2004).

Test system: mouse embryonic teratocarcinoma F9 cells
Test: differentiation test on mouse embryonic teratocarcinoma cells (F9), secretion of plasminogen activator
Format: cell-based
Conditions: for AC50: concentration of the test product which produces half of the maximum amount of plasminogen activator secreted; for RAR-agonist character concluded from F9 differentiation results: conclusion drawn from the F9 AC50 results
Excerpt: Results of differentiation tests on mouse embryonic teratocarcinoma cells (F9) to identify the RAR-agonist molecules as described in Skin Pharmacol. 3, pp. 256-267, 1990.
After treatment with the compounds of the examples cited in the following table, the mouse embryonic teratocarcinoma F9 cells differentiate into endodermal cells. This differentiation is characterized by the secretion of the plasminogen activator into the culture medium.
The activity of the product is expressed by the AC50 value representing the concentration of the test product which produces half of the maximum amount of plasminogen activator secreted.

SMILES	AC50 [nM]	RAR-agonist character concluded from F9 differentiation results	AC50 (Mus musculus, F9) [nM]
COC(=O)c1ccc(C#CSc2ccc3c(c2)C(C)(C)CCC3(C)C)cc1 [Compound 1, Methyl 4-(5,5,8,8,-tetramethyl-5,6,7,8-tetrahydro-2-nachthylsuphanylethynyl)-benzoate]	20	RAR-agonist	–
CC1(C)CCC(C)(C)c2cc(SC#Cc3ccc(C(=O)O)cc3)ccc21 [Compound 2, 4-(5,5,8,8-Tetramethyl-5,6,7,8-tetrahydro-2-naphthylsuphanylethynyl)benzoic acid]	1	RAR-agonist	–
COC(=O)c1ccc(C#C[Se]c2ccc3c(c2)C(C)(C)CCC3(C)C)cc1 [Compound 4, Methyl 4-(5,5,8,8-tetramethyl-5,6,7,8-tetrahydro-2-naphthylselanylethynyl)benzoate]	–	RAR-agonist	4
CC1(C)CCC(C)(C)c2cc([Se]C#Cc3ccc(C(=O)O)cc3)ccc21 [Compound 5, 4-(5,5,8,8-Tetramethyl-5,6,7,8-tetrahydro-2-naphthylselanylethynyl)benzoic acid]	–	RAR-agonist	21
Cc1cc2c(cc1[Se]C#Cc1ccc(C(=O)O)c(O)c1)C(C)(C)CCC2(C)C [Compound 16, 2-Hydroxy-4-(3,5,5,8,8-pentamethyl-5,6,7,8-tetrahydro-2-naphthylselanylethynyl)benzoic acid]	–	RAR-agonist	33
Cc1cc2c(cc1[Se]C#Cc1ccc(C(=O)O)cn1)C(C)(C)CCC2(C)C [Compound 18, 6-(3,5,5,8,8-Pentamethyl-5,6,7,8-tetrahydro-2-naphthylselanylethynyl)nicotinic acid]	–	RAR-agonist	34
